# Tests used:
# mouse [1] = conditions: Carcinogenicity, b6c3f1, Oral, Feed, dose end: 101 week, group: systemic
# rat [2] = conditions: Carcinogenicity, fischer, Oral, Feed, dose end: 101 week, group: systemic
# dog [3] = conditions: Chronic toxicity, beagle, Oral, Feed, dose end: 52 week, group: systemic
# dog [4] = conditions: Subchronic oral toxicity in nonrodent, beagle, Feed, dose end: 13 week, group: systemic, systemic / hematology / erythrocyte (rbc) count differential / erythrocyte (rbc) + systemic / in life observation / body weight / body …
# rat [5] = conditions: Subchronic oral toxicity in rodents, sprague dawley, Feed, dose end: 13 week, group: systemic, systemic / clinical chemistry / thyroxine (t4) / thyroxine (t4)
# rat [6] = conditions: Combined chronic toxicity/carcinogenicity, sprague dawley, Oral, Feed, dose end: 2 year, group: systemic
# rat [7] = conditions: Prenatal developmental toxicity study, sprague dawley, Oral, Gavage/Intubation, dose end: 15 GD
# rat [8] = conditions: Prenatal developmental toxicity study, sprague dawley, Oral, Gavage/Intubation, dose end: 15 GD; remark: listed apart in the source
# mouse [9] = conditions: Subchronic oral toxicity in rodents, cd1, Feed, dose end: 90 day, group: systemic, systemic / clinical chemistry / aminopyrine-n-demethylase / aminopyrine-n-demethylase + systemic / clinical chemistry / p-nitroanisole …
# rat [10] = conditions: Developmental neurotoxicity range-finding study; sprague dawley; Oral; Feed; dose end: 21 PND; group: cannot be grouped; systemic / in life observation / body weight / offspring (pup) weight
# rat [11] = conditions: Subchronic oral toxicity in rodents, other, Feed, dose end: 90 day, group: systemic
# dog [12] = conditions: Subchronic oral toxicity in nonrodent, beagle, Feed, dose end: 90 day, group: systemic, systemic / hematology / erythrocyte (rbc) count differential / erythrocyte (rbc) + systemic / hematology / mean corpuscular (cell) volume (…
# dog [13] = conditions: Subchronic oral toxicity in nonrodent, beagle, Gavage/Intubation, dose end: 90 day, group: systemic, systemic / in life observation / clinical signs / defecation (diarrhea) + systemic / in life observation / clinical signs / motor activity…
# mouse [14] = conditions: Subchronic oral toxicity in rodents, cd1, Feed, dose end: 90 day, group: systemic, systemic / in life observation / body weight / body weight gain + systemic / in life observation / food consumption / food consumption + …
# rat [15] = conditions: Multigenerational reproductive toxicity study, sprague dawley, Oral, Feed, dose end: 2 generation
# rabbit = conditions: Prenatal developmental toxicity study, new zealand white, Oral, Gavage/Intubation, dose end: 19 GD
# mouse [16] = conditions: Carcinogenicity, cd1, Oral, Feed, dose end: 80 week, group: systemic
# dog [17] = conditions: Chronic toxicity, beagle, Oral, Gavage/Intubation, dose end: 12 month, group: systemic
# rat [18] = conditions: Prenatal developmental toxicity study, sprague dawley, Oral, Gavage/Intubation, dose end: 15 GD; remark: listed apart in the source
# rat [19] = conditions: Subchronic oral toxicity in rodents, sprague dawley, Feed, dose end: 90 day, group: systemic
# rat [20] = conditions: Combined chronic toxicity/carcinogenicity, sprague dawley, Oral, Feed, dose end: 104 week, group: systemic
# rat [21] = conditions: Developmental neurotoxicity study; sprague dawley; Oral; Gavage/Intubation; dose end: 140 PND; group: cannot be grouped; systemic / in life observation / body weight / body weight + developmental / offspring survival late / [other] / [other] + systemic / in …
# mouse [22] = conditions: Carcinogenicity; b6c3f1; Oral; Feed; dose end: 78 week; group: systemic; systemic / pathology microscopic / liver / carcinoma + systemic / in life observation / body weight / body weight + systemic / in life …
# rat [23] = conditions: Carcinogenicity, other, Oral, Feed, dose end: 78 week, group: systemic
# [24] = systemic / in life observation / body weight / body weight
# [25] = systemic / in life observation / body weight / body weight + systemic / pathology microscopic / blood vessel / hemangiosarcoma + systemic / …
# [26] = systemic / in life observation / body weight / body weight + systemic / pathology microscopic / liver / neoplastic nodule + systemic / …
# [27] = systemic / in life observation / body weight / body weight gain
# [28] = systemic / in life observation / body weight / body weight gain + systemic / clinical chemistry / cholesterol / cholesterol + systemic / …
# [29] = total + systemic / clinical chemistry / thyroid stimulating hormone (…
# [30] = systemic / clinical chemistry / thyroid stimulating hormone (thyrotropin) (tsh) / thyroid stimulating hormone (=thyrotropin) (tsh) + …
# [31] = group: developmental, developmental / developmental malformation / bone / absent + developmental / developmental malformation / bone / bent + developmental / …
# [32] = group: maternal, systemic / in life observation / body weight / body weight + systemic / in life observation / body weight / body weight gain + systemic / in…
# [33] = group: developmental, developmental / developmental malformation / bone / incomplete ossification
# [34] = group: maternal, systemic / in life observation / body weight / body weight gain + systemic / in life observation / food consumption / food consumption
# [35] = group: maternal, systemic / in life observation / body weight / body weight gain + systemic / in life observation / food consumption / food consumption + …
# [36] = systemic / pathology microscopic / kidney / pigmentation
# [37] = systemic / pathology microscopic / kidney / pigmentation + systemic / clinical chemistry / cholesterol / cholesterol + systemic / clinical …
# [38] = group: offspring, systemic / in life observation / body weight / offspring (pup) weight + systemic / in life observation / body weight / offspring (pup) …
# [39] = group: parental, systemic / in life observation / body weight / body weight
# [40] = group: developmental, developmental / developmental malformation / bone / full supernumerary + developmental / developmental malformation / bone / incomplete …
# [41] = systemic / pathology gross / urinary bladder / distended
# [42] = systemic / pathology gross / urinary bladder / distended + systemic / hematology / lymphocyte / lymphocyte + systemic / hematology / …
# [43] = systemic / hematology / blood clotting / blood clotting - thromboplastin time + systemic / in life observation / body weight / body weight …
# [44] = group: developmental, systemic / in life observation / body weight / fetal weight + systemic / in life observation / body weight / litter weight
# [45] = systemic / in life observation / body weight / body weight + systemic / in life observation / body weight / body weight gain + systemic / in…
# [46] = systemic / in life observation / body weight / body weight gain + systemic / organ weight / liver / relative to body weight
# [47] = systemic / pathology microscopic / thyroid gland / adenoma + systemic / clinical chemistry / cholesterol / cholesterol + systemic / clinical…
# [48] = systemic / pathology microscopic / liver / necrosis
# [49] = systemic / pathology microscopic / liver / necrosis + systemic / pathology microscopic / thyroid gland / adenoma + systemic / in life …
smiles,measurement,setting,value
"Cc1cc(C)c(N)cc1C [2,4,5-Trimethylaniline]",LOAEL,mouse [1]; [24],7.5 mg/kg/day
same,NOAEL,mouse [1]; [24],< 7.5 mg/kg/day
same,LEL,mouse [1]; [25],7.5 mg/kg/day
same,NEL,mouse [1]; [25],< 7.5 mg/kg/day
same,LOAEL,rat [2]; [24],10 mg/kg/day
same,NOAEL,rat [2]; [24],< 10 mg/kg/day
same,LEL,rat [2]; [26],10 mg/kg/day
same,NEL,rat [2]; [26],< 10 mg/kg/day
S=C([S-])NCCNC(=S)[S-].S=C([S-])NCCNC(=S)[S-].[Mn+2].[Zn+2] [Mancozeb],LEL,dog [3]; [27],7.26 mg/kg/day
same,LOAEL,dog [3]; [27],7.26 mg/kg/day
same,NEL,dog [3]; [28],1.75 mg/kg/day
same,NOAEL,dog [3]; [28],1.75 mg/kg/day
same,LEL,dog [4],28.6 mg/kg/day
same,LOAEL,dog [4],28.6 mg/kg/day
same,NEL,dog [4],2.98 mg/kg/day
same,NOAEL,dog [4],2.98 mg/kg/day
same,LEL,rat [5]; total,17.8 mg/kg/day
same,LOAEL,rat [5]; total,17.8 mg/kg/day
same,NEL,rat [5]; [29],9.24 mg/kg/day
same,NOAEL,rat [5]; [29],9.24 mg/kg/day
same,LEL,rat [6]; systemic / clinical chemistry / thyroid stimulating hormone (thyrotropin) (tsh) / thyroid stimulating hormone (=thyrotropin) (tsh),2.33 mg/kg/day
same,LOAEL,rat [6]; [30],30.9 mg/kg/day
same,NEL,rat [6]; [30],0.77 mg/kg/day
same,NOAEL,rat [6]; [30],4.38 mg/kg/day
same,LEL,rat [7]; [31],512 mg/kg/day
same,LOAEL,rat [7]; [31],512 mg/kg/day
same,NEL,rat [7]; [31],128 mg/kg/day
same,NOAEL,rat [7]; [31],128 mg/kg/day
same,LEL,rat [7]; [32],128 mg/kg/day
same,LOAEL,rat [7]; [32],128 mg/kg/day
same,NEL,rat [7]; [32],32 mg/kg/day
same,NOAEL,rat [7]; [32],32 mg/kg/day
same,LEL,rat [8]; [33],2 mg/kg/day
same,NEL,rat [8]; [33],< 2 mg/kg/day
same,LOAEL,"rat [8]; group: developmental, developmental / developmental malformation / bone / incomplete ossification + developmental / developmental malformation / brain / [other]",8 mg/kg/day
same,NOAEL,"rat [8]; group: developmental, developmental / developmental malformation / bone / incomplete ossification + developmental / developmental malformation / brain / [other…",2 mg/kg/day
same,LEL,rat [8]; [34],128 mg/kg/day
same,LOAEL,rat [8]; [34],128 mg/kg/day
same,NEL,rat [8]; [35],32 mg/kg/day
same,NOAEL,rat [8]; [35],32 mg/kg/day
same,LEL,mouse [9],167 mg/kg/day
same,LOAEL,mouse [9],167 mg/kg/day
same,NEL,mouse [9],18.1 mg/kg/day
same,NOAEL,mouse [9],18.1 mg/kg/day
same,LEL,rat [10],30 mg/kg/day
same,LOAEL,rat [10],30 mg/kg/day
same,NEL,rat [10],5 mg/kg/day
same,NOAEL,rat [10],5 mg/kg/day
same,LEL,rat [11]; [36],7.42 mg/kg/day
same,LOAEL,rat [11]; [36],7.42 mg/kg/day
same,NEL,rat [11]; [37],3.49 mg/kg/day
same,NOAEL,rat [11]; [37],3.49 mg/kg/day
O=C(NC(=O)c1c(F)cccc1F)Nc1cc(Cl)c(OC(F)(F)C(F)C(F)(F)F)c(Cl)c1F (stereo unspecified) [Noviflumuron],LEL,dog [12],113 mg/kg/day
same,LOAEL,dog [12],113 mg/kg/day
same,NEL,dog [12],1.06 mg/kg/day
same,NOAEL,dog [12],1.06 mg/kg/day
Cc1cc(C)nc(Nc2ccccc2)n1 [Pyrimethanil],LEL,dog [13],800 mg/kg/day
same,LOAEL,dog [13],800 mg/kg/day
same,NEL,dog [13],80 mg/kg/day
same,NOAEL,dog [13],80 mg/kg/day
same,LEL,mouse [14],1860 mg/kg/day
same,LOAEL,mouse [14],1860 mg/kg/day
same,NEL,mouse [14],139 mg/kg/day
same,NOAEL,mouse [14],139 mg/kg/day
same,LOAEL,"rat [15]; group: offspring, systemic / in life observation / body weight / offspring (pup) weight",294 mg/kg/day
same,LEL,rat [15]; [38],294 mg/kg/day
same,NEL,rat [15]; [38],23.1 mg/kg/day
same,NOAEL,rat [15]; [38],23.1 mg/kg/day
same,LEL,rat [15]; [39],1.9 mg/kg/day
same,NEL,rat [15]; [39],< 1.9 mg/kg/day
same,LOAEL,"rat [15]; group: parental, systemic / in life observation / body weight / body weight + systemic / in life observation / body weight / body weight gain",294 mg/kg/day
same,NOAEL,"rat [15]; group: parental, systemic / in life observation / body weight / body weight + systemic / in life observation / body weight / body weight gain + systemic / in…",23.1 mg/kg/day
same,LEL,rabbit; [40],300 mg/kg/day
same,LOAEL,rabbit; [40],300 mg/kg/day
same,NEL,rabbit; [40],45 mg/kg/day
same,NOAEL,rabbit; [40],45 mg/kg/day
same,LOAEL,rabbit; [32],300 mg/kg/day
same,NEL,rabbit; [32],7 mg/kg/day
same,NOAEL,rabbit; [32],45 mg/kg/day
same,LEL,"rabbit; group: maternal, systemic / in life observation / clinical signs / defecation",45 mg/kg/day
same,LEL,mouse [16]; [41],2 mg/kg/day
same,NEL,mouse [16]; [41],< 2 mg/kg/day
same,LOAEL,mouse [16]; [42],> 211 mg/kg/day
same,NOAEL,mouse [16]; [42],≥ 211 mg/kg/day
same,NEL,dog [17]; systemic / hematology / blood clotting / blood clotting - thromboplastin time + systemic / hematology / neutrophils / neutrophils + systemic…,2 mg/kg/day
same,LOAEL,dog [17]; [43],250 mg/kg/day
same,NOAEL,dog [17]; [43],30 mg/kg/day
same,LEL,dog [17]; systemic / in life observation / clinical signs / vomitting,30 mg/kg/day
same,LEL,rat [18]; [44],1000 mg/kg/day
same,LOAEL,rat [18]; [44],1000 mg/kg/day
same,NEL,rat [18]; [44],85 mg/kg/day
same,NOAEL,rat [18]; [44],85 mg/kg/day
same,LOAEL,"rat [18]; group: maternal, systemic / in life observation / body weight / body weight + systemic / in life observation / body weight / body weight gain",1000 mg/kg/day
same,LEL,rat [18]; [32],1000 mg/kg/day
same,NEL,rat [18]; [32],85 mg/kg/day
same,NOAEL,rat [18]; [32],85 mg/kg/day
same,LOAEL,rat [19]; [45],529 mg/kg/day
same,NOAEL,rat [19]; [45],54.5 mg/kg/day
same,LEL,rat [19]; [46],6.8 mg/kg/day
same,NEL,rat [19]; [46],< 6.8 mg/kg/day
same,LEL,rat [20]; systemic / clinical chemistry / gamma glutamyl transferase (ggt) / gamma glutamyl transferase (ggt) + systemic / organ weight / liver / …,17 mg/kg/day
same,LOAEL,rat [20]; [47],221 mg/kg/day
same,NEL,rat [20]; [47],1.3 mg/kg/day
same,NOAEL,rat [20]; [47],17 mg/kg/day
O=C1CCC(N2C(=O)c3ccccc3C2=O)C(=O)N1 (stereo unspecified) [Thalidomide],LEL,rat [21],100 mg/kg/day
same,LOAEL,rat [21],> 100 mg/kg/day
same,NEL,rat [21],< 100 mg/kg/day
same,NOAEL,rat [21],≥ 100 mg/kg/day
"ClC(Cl)=C(c1ccc(Cl)cc1)c1ccc(Cl)cc1 [p,p'-DDE]",LEL,mouse [22],22.2 mg/kg/day
same,LOAEL,mouse [22],> 39.1 mg/kg/day
same,NEL,mouse [22],< 22.2 mg/kg/day
same,NOAEL,mouse [22],≥ 39.1 mg/kg/day
same,LOAEL,rat [23]; [48],12.1 mg/kg/day
same,NOAEL,rat [23]; [48],< 12.1 mg/kg/day
same,LEL,rat [23]; [49],12.1 mg/kg/day
same,NEL,rat [23]; [49],< 12.1 mg/kg/day

# Reference: EPA's ToxRefDB 2
